Assay results as given in US20200352931A1, “OXALAMIDES AS MODULATORS OF INDOLEAMINE 2,3-DIOXYGENASE” (PHENEX DISCOVERY VERWALTUNGS-GMBH, priority 2017, published 2020).

Biological target: T1, Indoleamine 2,3-Dioxygenase (IDO1) in SKOV-3 cells (Homo sapiens, UniProt P14902)
T1 construct: endogenous in cells; host or cells: SKOV-3 (ATCC HTB-77), stimulated with 50 ng/ml interferon gamma
Assay: SKOV-3 cellular indoleamine 2,3-dioxygenase assay
Conditions: 50 ng/ml Interferon gamma, 100 μM L-Tryptophan, 24 hours, N-Formylkynurenin fluorescence, read-out: cell based activity (IC50)
Method: SKOV-3 Cellular Indoleamine 2,3-Dioxygenase Assay
SKOV-3 cells were obtained from the American Type Culture Collection (ATCC® HTB-77™) and maintained in McCoy's medium (Pan Biotech) supplemented with 10% fetal bovine serum and 1% Penicilin/Streptomycin. Cells were kept at 37° C. in a humidified incubator with 5% CO2. For assay preparation, cells were seeded at a density of 2*10^5/m into black clear bottom 96 well plates in 100 μl medium/well supplemented with 50 ng/ml Interferon gamma (eBioscience, Thermo Fisher Scientific). After cells fully adhered to the plate, dilution series of compounds were added in medium containing additional L-Tryptophan to a final L-Tryptophan concentration of 100 μM. The cells were incubated for 24 hours. Detection of produced N-Formylkynurenin was performed by addition of 3-Methylpiperidine to a final concentration of 200 mM. The plates were sealed and heated to 65° C. for 20 minutes in a water bath. After cooling the fluorescence of each well was recorded with a Victor™ X4 (PerkinElmer) plate reader at an emission wavelength of 535 nm and excitation at 405 nm (Tomek et al.; Anal Bioanal Chem (2013) 405:2515-2524., Tomek et al.; Biochim Biophys Acta. 2015 September; 1850(9):1772-80).

T1 sequence (P14902 whole entry): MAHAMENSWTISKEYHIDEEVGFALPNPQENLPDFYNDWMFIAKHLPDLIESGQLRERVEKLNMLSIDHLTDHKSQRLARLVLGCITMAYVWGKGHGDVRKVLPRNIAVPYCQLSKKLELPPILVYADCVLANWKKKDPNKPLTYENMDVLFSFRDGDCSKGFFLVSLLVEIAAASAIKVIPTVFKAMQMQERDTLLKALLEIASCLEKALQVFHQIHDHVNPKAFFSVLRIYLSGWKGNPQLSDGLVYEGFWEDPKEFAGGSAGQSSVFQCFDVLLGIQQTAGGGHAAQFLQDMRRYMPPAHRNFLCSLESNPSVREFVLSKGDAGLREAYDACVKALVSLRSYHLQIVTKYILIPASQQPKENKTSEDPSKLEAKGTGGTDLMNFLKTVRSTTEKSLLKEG

**Q.** With `N#Cc1ccc(C2CCN(C(=O)C(=O)Nc3ccc(Cl)cn3)CC2)c2ccccc12` [2/6] as the compound, how does the IC50 read?
**A.** 100 to 1000 nM

**Q.** How did the IC50 turn out when `O=C(Nc1ccc(Cl)cn1)C(=O)N1CCC(c2ccnc(C(F)(F)F)c2Cl)CC1` [2/4] was run?
**A.** 100 to 1000 nM

**Q.** With `NC(=O)c1ccc(NC(=O)C(=O)N2CCC(c3ccnc4ccc(F)cc34)CC2)cc1` [5/9] as the compound, how does the IC50 read?
**A.** > 1000 nM

**Q.** Which IC50 does the source give for `O=C(Nc1ccc(Cl)cc1F)C(=O)N1CCC(c2ccnc3ccnn23)CC1` [1/5] here?
**A.** 100 to 1000 nM

**Q.** With `NC(=O)c1ccc2nccc(C3CCN(C(=O)C(=O)Nc4ccc(Cl)cc4)CC3)c2c1` [1/43] as the compound, how does the IC50 read?
**A.** > 1000 nM

**Q.** How did the IC50 turn out when `CC(NC(=O)C(=O)N1CCC(c2ccnc3ccc(F)cc23)CC1)c1ccccc1` (stereo not drawn) [Example 8, 2-(4-(6-Fluoroquinolin-4-yl)piperidin-1-yl)-2-oxo-N-(1-phenylethyl)acetamide] was run?
**A.** > 1000 nM

**Q.** For `O=C(Nc1ccc(SC(F)(F)F)cc1)C(=O)N1CCC(c2ccnc3ccc(F)cc23)CC1` [1/38], which IC50 is on record?
**A.** < 100 nM

**Q.** Which IC50 does the source give for `O=C(Nc1ccc(Cl)cn1)C(=O)N1CCC2(CC1)COc1ccccc12` [100/2] here?
**A.** 100 to 1000 nM

**Q.** With `O=C(Nc1ccc(Br)cc1)C(=O)N1CCC(c2ccnc3ccc(F)cc23)CC1` [1/27] as the compound, how does the IC50 read?
**A.** < 100 nM

**Q.** `O=C(Nc1ccc(Cl)cc1)C(=O)N1CCC(c2ccnc3ccccc23)CC1` [1/3] was tested. Which IC50 did it give?
**A.** < 100 nM

**Q.** How did the IC50 turn out when `O=C(Nc1csc(Cl)c1)C(=O)N1CCC(c2ccnc3ccc(F)cc23)CC1` [7/2] was run?
**A.** < 100 nM

**Q.** With `O=C(Nc1ccc(Cl)cc1)C(=O)N1CCC2(CC1)OCc1cc(C(F)(F)F)c(F)cc12` [100/13] as the compound, how does the IC50 read?
**A.** < 100 nM

**Q.** `O=C(Nc1cccc(C(F)(F)F)c1)C(=O)N1CCC(c2ccnc3ccc(F)cc23)CC1` [1/15] was tested. Which IC50 did it give?
**A.** 100 to 1000 nM

**Q.** Which IC50 does the source give for `Cc1nc(NC(=O)C(=O)N2CCC(c3ccnc4ccc(F)cc34)CC2)ccc1-c1cnn(C)c1` [5/6] here?
**A.** > 1000 nM

**Q.** How did the IC50 turn out when `O=C(Nc1ccc(OC(F)F)cc1F)C(=O)N1CCC(c2ccnc3ccc(F)cc23)CC1` [1/40] was run?
**A.** < 100 nM

**Q.** For `O=C(Nc1ccc(C(F)(F)F)cn1)C(=O)N1CCC(c2ccnc3ccc(F)cc23)CC1` [5/2], which IC50 is on record?
**A.** 100 to 1000 nM

**Q.** With `CC1(C)CC(c2ccnc3ccccc23)CCN1C(=O)C(=O)Nc1ccc(Cl)cn1` (stereo not drawn) [1/11] as the compound, how does the IC50 read?
**A.** < 100 nM

**Q.** Which IC50 does the source give for `CC(C)(O)c1ccc2nccc(C3CCN(C(=O)C(=O)Nc4ccc(Cl)cc4)CC3)c2c1` [1/42] here?
**A.** > 1000 nM

**Q.** Which IC50 does the source give for `O=C(Nc1ccc(Cl)cc1)C(=O)N1CCC(c2ccnc3cc(F)ccc23)CC1` [1/31] here?
**A.** < 100 nM

**Q.** With `O=C(N[C@@H]1CCc2ccccc21)C(=O)N1CCC(c2ccnc3ccc(F)cc23)CC1` [8/1] as the compound, how does the IC50 read?
**A.** > 1000 nM

**Q.** How did the IC50 turn out when `O=C(Nc1ccc(Cl)cc1)C(=O)N1CC[C@@H](c2ccnc3ccc(F)cc23)[C@H](O)C1` (single isomer, unassigned) [Example 10b, trans-N-(4-Chlorophenyl)-2-(4-(6-fluoroquinolin-4-yl)-3-hydroxypiperidin-1-yl)-2-oxoacetamide] was run?
**A.** < 100 nM

**Q.** For `O=C(Nc1ccc(Cl)cn1)C(=O)N1CCC2(CCc3ccccc32)CC1` [Example 100], which IC50 is on record?
**A.** < 100 nM

**Q.** Which IC50 does the source give for `O=C(Nc1ccc(Cl)cc1F)C(=O)N1CCC(c2ccccc2)C1` (stereo not drawn) [1/7] here?
**A.** > 1000 nM

**Q.** For `O=C(Nc1ccc(C(F)(F)F)c(Cl)c1)C(=O)N1CCC(c2ccnc3ccc(F)cc23)CC1` [1/20], which IC50 is on record?
**A.** > 1000 nM

**Q.** With `O=C(Nc1ccc(Cl)cn1)C(=O)N1CCC(c2cc(OC(F)F)nc3ccccc23)CC1` [1/33] as the compound, how does the IC50 read?
**A.** > 1000 nM

**Q.** For `O=C(Nc1ccc(Cl)cc1)C(=O)N1CCC(c2ccnc3cc(Cl)ccc23)CC1` [1/48], which IC50 is on record?
**A.** < 100 nM

**Q.** How did the IC50 turn out when `O=C(Nc1ccc(Cl)cn1)C(=O)N1CCC(c2ccnc3ccccc23)CC1` [Example 3, N-(5-Chloropyridin-2-yl)-2-oxo-2-(4-(quinolin-4-yl)piperidin-1-yl)acetamide] was run?
**A.** < 100 nM

**Q.** Which IC50 does the source give for `C[C@H]1CC[C@H](NC(=O)C(=O)N2CCC(c3ccnc4ccccc34)CC2)CC1` [Example 4, N-((1r,4r)-4-Methylcyclohexyl)-2-oxo-2-(4-(quinolin-4-yl)piperidin-1-yl)acetamide] here?
**A.** 100 to 1000 nM

**Q.** Which IC50 does the source give for `O=C(Nc1ccc(Cl)cn1)C(=O)N1CCC(c2cccc3ccccc23)CC1` [Example 6, N-(5-Chloropyridin-2-yl)-2-(4-(naphthalen-1-yl)piperidin-1-yl)-2-oxoacetamide] here?
**A.** 100 to 1000 nM

**Q.** With `O=C(NCc1ccc(Cl)cc1)C(=O)N1CCC(c2ccnc3ccc(F)cc23)CC1` [2/1] as the compound, how does the IC50 read?
**A.** > 1000 nM
